Patent US6410340B1, “Use of an 8.4 kDa protein as an immunophilin reagent in protein binding assays for immunosuppressive drugs” (Children's Research Institute, priority 2000, dated 2002)

Key:
[1] = test system: 5-8 kDa immunophilin; settings: cited from earlier work
[2] = test system: 52 kDa immunophilin; settings: Davis et al. 2000; cited from earlier work
[3] = cited from earlier work; for fraction in the blood in the form of the parent compound: patients; for metabolites as share of all drug species in blood: rapamycin: trough blood samples
[4] = biological target: T1, 8.4 kDa immunophilin (Bos taurus, UniProt P62992); experiment: Displacement of tritiated FK-506 from the 8.4 kDa immunophilin by RAP; type: binding, calf; settings: displacement of tritiated FK-506 by RAP; read-out: calculated Kd
T1 construct: from tissue; host or cells: calf thymus
T1 sequence (P62992 1-74 limits assumed): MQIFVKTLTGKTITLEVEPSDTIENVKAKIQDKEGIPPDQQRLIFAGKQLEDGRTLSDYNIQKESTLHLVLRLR
Description: An immunophilin protein binding assay (“IBA”) carried out in accordance with this invention can be performed by solution phase or solid phase methods. The basic principle underlying each method is the same, and is described in, e.g., Davis et al., Clin. Biochem. 33:1(2000) and the Soldin patents listed above. Briefly, in a competitive IBA, a competition equilibrium is set up between a tracer amount of labeled drug and the corresponding drug in unknown samples containing the drug or biologically-active metabolites for binding to specific binding sites on an immunophilin. Following attainment of equilibrium, the amount of labeled drug bound to the immunophilin is determined. The amount of labeled drug bound will be reduced in proportion to the amount of analyte in a biological sample being analyzed. The quantitative relationship between the reduction of immunophilin-bound labeled drug and the concentration of the analyte in the unknown sample is determined by reference to a standard calibration curve. […] The amount of labeled drug bound to an immunophilin need not be determined directly; it may be determined by subtracting from the total amount of label added […] in the solution at equilibrium. […]

[5] = biological target: T1, 8.4 kDa immunophilin; experiment: Binding of [mebmt-beta-3H]-CsA to the 8.4 kDa immunophilin; parameters: species or system calf; settings: too low to measure; dissociation constant could not be determined
Description: A dissociation constant for [mebmt-beta-3H]-CsA with the 8.4 kDa immunophilin could not be determined, as the binding of this drug to the protein was too low to measure (0.13%).

[6] = biological target: T1, 8.4 kDa immunophilin; experiment: Saturation analysis of tritiated FK-506 binding to calf thymus 8.4 kDa immunophilin (Scatchard, Hill plots); settings: tritiated FK-506, calf thymus 8.4 kDa immunophilin, EBDA/LIGAND
Description: Analytical data on purified immunophilins may be obtained conventionally. Association constants, specific binding activities, and numbers and types of binding sites can be obtained from Scatchard and Hill plots, using EBDA and LIGAND software. Isoelectric points (“pI”) can be obtained by isofocussing techniques. To obtain amino acid composition data, samples can be hydrolyzed by HCl gas in the presence of internal standards (e.g., norvaline and sarcosine), the products derivatized with a fluorescent reagent, and the derivatized amino acids separated on a Hewlett-Packard AMINO QUANT Analyzer. […]
An immunophilin protein binding assay (“IBA”) carried out in accordance with this invention can be performed by solution phase or solid phase methods. […] Following attainment of equilibrium, the amount of labeled drug bound to the immunophilin is determined. The amount of labeled drug bound will be reduced in proportion to the amount of analyte in a biological sample being analyzed. The quantitative relationship between the reduction of immunophilin-bound labeled drug and the concentration of the analyte in the unknown sample is determined by reference to a standard calibration curve. […] The amount of labeled drug bound to an immunophilin need not be determined directly; it may be determined by subtracting from the total amount of label added […] in the solution at equilibrium. […]

| Compound | binding to 5-8 kDa immunophilin [1] | binding to 52 kDa immunophilin [2] | also measured |
| --- | --- | --- | --- |
| (C1-C8 or C32-C36) OH sirolimus | substantially binds | substantially binds |  |
| 41-0-demethyl sirolimus | substantially binds | substantially binds |  |
| CO[C@H]1C[C@@H]2CC[C@@H](C)[C@@](O)(O2)C(=O)C(=O)N2CCCC[C@H]2C(=O)O[C@H]([C@H](C)C[C@@H]2CC[C@@H](O)[C@H](OC)C2)CC(=O)[C@H](C)/C=C(\C)[C@@H](O)[C@@H](OC)C(=O)[C@H](C)C[C@H](C)/C=C/C=C/C=C/1C [RAP, rapamycin] |  |  | fraction in the blood in the form of the parent compound [3]: ½; metabolites as share of all drug species in blood [3]: at least 50%; Kd [4]: 0.08 nM |
| 32,41-0-demethyl sirolimus | substantially binds | substantially binds |  |
| (C9-C23)-OH-sirolimus | all but the fourth metabolite substantially binds | all but the fourth metabolite substantially binds |  |
| 7-0-demethyl sirolimus | substantially binds | substantially binds |  |
| cyclosporin A [CsA] |  |  | binding of the drug to the protein [5]: 0.13% |
| C=CC[C@@H]1/C=C(\C)C[C@H](C)C[C@H](OC)[C@H]2O[C@@](O)(C(=O)C(=O)N3CCCC[C@H]3C(=O)O[C@H](/C(C)=C/[C@@H]3CC[C@@H](O)[C@H](OC)C3)[C@H](C)[C@@H](O)CC1=O)[C@H](C)C[C@@H]2OC [FK-506] |  |  | fraction in the blood in the form of the parent compound [3]: ¾; metabolites as share of all drug species in blood [3]: about 30%; Kd [6]: 0.8 nM |
